Test results taken from patent US20050282743A1, “Molecular interactions in cells” (Arbor Vita Corporation, priority 2001, published 2005).
Peptide text beside a SMILES is read from it. * marks the point of attachment. Biotin = O=C1N[C@H]2[C@H](CS[C@H]2CCCCC(=O)*)N1

Experiments:
Assay type in all cases: binding
[1] = target: T1, KIAA0807(S) (PDZ Domain 1) (Homo sapiens, UniProt Q6P0Q8); test: G' assay and Kd titration, TABLE 12
T1 construct: made in house; host or cells: E. coli (DH5alpha, BL21 or JM109)
T1 sequence (Q6P0Q8 with tags, fused parts or gaps): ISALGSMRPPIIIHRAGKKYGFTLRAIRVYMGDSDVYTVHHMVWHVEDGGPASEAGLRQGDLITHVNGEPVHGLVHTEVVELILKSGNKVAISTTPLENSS
Description: (§1) The third column labeled “Peptide Optimal Concentration” in the tables is a number reflective of the binding interaction between the PL protein and PDZ protein. […] The column labeled “Protein Optimal Concentration” refers to the protein concentration used to assay PL interaction (in ug/ml); a ‘0’ is indicative of 5 ug/ml protein concentration; any other value represents the concentration (in ug/ml) used to determine the dissociation constant for a given interaction.
(§2) Finally, the seventh column labeled “Classification” is another measure of the level of binding. In particular, it provides an absorbance value at 450 nm which indicates the amount of PL peptide bound to the PDZ protein. The following numerical values have the following meanings: ‘1’—A450 nm 0-1; ‘2’—A450 nm 1-2; ‘3’—A450 nm 2-3; ‘4’—A450 nm 3-4; ‘5’—A450 nm of 4 more than 2× repeated; ‘0’—A450 nm 0, i.e., not found to interact. Thus, higher numbers indicate stronger interactions.
For convenience, the assay conditions described in this section are referred to as the “G′ assay” and the “G″ assay,” with the specific conditions described in the preceding section on G assays being referred to as the “G^0 assay.” The “G′ assay” is identical to the “G^0 assay” except at step (2) the peptide concentration is 10 uM instead of 20 uM.

[2] = target: T2, PDZ protein (GST-PDZ fusion) (Homo sapiens, UniProt Q5T2W1); test: G' assay (10 uM PL peptide), results of TABLE 7 and TABLE 12; conditions: PDZ PDZK-1, PDZ Domain 2
T2 construct: made in house; host or cells: E. coli (DH5alpha, BL21 or JM109)
T2 sequence (Q5T2W1 1-519): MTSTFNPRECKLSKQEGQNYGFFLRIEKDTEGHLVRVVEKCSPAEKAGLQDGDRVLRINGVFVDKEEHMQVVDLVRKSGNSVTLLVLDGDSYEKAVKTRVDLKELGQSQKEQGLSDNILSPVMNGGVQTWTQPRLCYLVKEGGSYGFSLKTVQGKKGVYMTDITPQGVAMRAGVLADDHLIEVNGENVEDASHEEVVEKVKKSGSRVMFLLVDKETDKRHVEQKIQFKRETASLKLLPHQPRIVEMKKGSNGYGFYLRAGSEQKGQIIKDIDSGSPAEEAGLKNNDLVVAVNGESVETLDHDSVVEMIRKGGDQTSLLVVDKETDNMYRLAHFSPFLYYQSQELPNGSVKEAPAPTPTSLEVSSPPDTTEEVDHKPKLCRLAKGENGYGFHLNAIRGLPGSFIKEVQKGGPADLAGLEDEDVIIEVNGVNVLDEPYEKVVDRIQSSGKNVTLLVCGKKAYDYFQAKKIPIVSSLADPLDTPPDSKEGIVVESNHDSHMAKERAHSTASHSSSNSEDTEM
Method in brief: (§3)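 Biotinylated PL peptides at 10 uM (vs 20 uM in G^0 assay) bound to GST-PDZ fusions; PDZ protein at 5 ug/ml unless another concentration listed. Bound peptide read as A450 nm, classified 0–5 (0 = A450 0; 5 = A450 >4 repeated).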

[3] = target: T3, PDZ protein (GST-PDZ fusion) (Homo sapiens, UniProt O14745); test: as above
T3 construct: made in house; host or cells: E. coli (DH5alpha, BL21 or JM109)
T3 sequence (O14745 1-358): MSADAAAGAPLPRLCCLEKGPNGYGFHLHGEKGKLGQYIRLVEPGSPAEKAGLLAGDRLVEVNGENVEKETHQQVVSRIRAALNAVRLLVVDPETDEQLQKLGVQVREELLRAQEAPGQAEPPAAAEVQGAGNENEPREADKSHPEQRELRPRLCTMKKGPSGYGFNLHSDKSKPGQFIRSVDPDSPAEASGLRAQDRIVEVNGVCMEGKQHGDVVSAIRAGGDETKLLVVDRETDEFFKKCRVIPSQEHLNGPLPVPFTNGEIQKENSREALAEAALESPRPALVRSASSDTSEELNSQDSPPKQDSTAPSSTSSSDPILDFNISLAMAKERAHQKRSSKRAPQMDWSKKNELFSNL
Method in brief: as §3

[4] = target: T4, PDZ protein (GST-PDZ fusion) (Homo sapiens, UniProt Q9BYB0); test: as above; conditions: PDZ SHANK3, PDZ Domain 1
T4 construct: made in house; host or cells: E. coli (DH5alpha, BL21 or JM109)
T4 sequence (Q9BYB0 whole entry, the tested form may be a part): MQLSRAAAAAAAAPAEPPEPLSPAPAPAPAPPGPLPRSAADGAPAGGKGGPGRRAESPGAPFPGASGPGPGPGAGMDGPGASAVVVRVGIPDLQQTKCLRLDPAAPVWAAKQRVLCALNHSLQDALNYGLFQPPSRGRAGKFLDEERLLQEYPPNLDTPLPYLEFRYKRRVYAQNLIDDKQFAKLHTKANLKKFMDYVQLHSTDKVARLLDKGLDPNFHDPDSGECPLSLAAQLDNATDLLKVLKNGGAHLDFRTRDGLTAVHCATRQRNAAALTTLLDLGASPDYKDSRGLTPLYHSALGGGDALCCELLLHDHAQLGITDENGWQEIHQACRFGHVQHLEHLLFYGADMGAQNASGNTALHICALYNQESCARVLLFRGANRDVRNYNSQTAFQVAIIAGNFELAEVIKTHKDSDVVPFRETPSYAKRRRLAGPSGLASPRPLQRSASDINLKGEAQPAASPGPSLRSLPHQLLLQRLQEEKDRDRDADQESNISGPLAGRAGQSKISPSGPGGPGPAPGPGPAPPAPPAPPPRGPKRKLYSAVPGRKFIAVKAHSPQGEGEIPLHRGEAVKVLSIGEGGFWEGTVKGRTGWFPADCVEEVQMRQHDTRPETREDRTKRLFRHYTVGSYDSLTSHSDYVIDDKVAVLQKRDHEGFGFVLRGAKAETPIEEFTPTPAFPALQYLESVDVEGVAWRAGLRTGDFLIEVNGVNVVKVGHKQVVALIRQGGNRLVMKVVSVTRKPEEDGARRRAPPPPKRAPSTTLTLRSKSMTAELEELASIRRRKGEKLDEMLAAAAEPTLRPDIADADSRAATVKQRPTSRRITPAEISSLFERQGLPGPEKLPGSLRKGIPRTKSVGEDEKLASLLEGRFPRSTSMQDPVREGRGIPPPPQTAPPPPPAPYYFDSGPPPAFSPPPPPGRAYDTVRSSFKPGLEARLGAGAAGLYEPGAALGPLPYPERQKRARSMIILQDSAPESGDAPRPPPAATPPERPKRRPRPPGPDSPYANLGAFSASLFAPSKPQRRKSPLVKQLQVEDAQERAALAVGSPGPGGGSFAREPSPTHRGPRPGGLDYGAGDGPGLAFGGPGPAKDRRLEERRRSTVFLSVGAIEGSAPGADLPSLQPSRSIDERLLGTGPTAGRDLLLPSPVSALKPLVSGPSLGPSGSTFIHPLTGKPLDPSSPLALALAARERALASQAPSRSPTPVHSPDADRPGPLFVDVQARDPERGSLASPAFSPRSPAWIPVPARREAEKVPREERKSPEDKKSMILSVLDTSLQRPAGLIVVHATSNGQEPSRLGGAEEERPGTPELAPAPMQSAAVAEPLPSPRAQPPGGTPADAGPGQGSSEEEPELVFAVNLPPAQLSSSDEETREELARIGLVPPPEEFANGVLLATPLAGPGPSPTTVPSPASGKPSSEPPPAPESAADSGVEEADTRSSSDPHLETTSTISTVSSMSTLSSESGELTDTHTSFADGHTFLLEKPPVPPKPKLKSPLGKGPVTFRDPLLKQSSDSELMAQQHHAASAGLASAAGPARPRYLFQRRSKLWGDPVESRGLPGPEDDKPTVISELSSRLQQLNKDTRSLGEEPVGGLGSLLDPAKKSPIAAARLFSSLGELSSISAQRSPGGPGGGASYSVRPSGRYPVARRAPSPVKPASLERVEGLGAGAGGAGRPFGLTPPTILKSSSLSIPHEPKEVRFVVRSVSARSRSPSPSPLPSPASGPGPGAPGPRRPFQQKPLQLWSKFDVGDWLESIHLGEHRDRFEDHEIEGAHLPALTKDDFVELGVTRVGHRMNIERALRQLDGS
Method in brief: as §3

[5] = target: T5, PDZ protein (GST-PDZ fusion) (Homo sapiens, UniProt Q9Y566); test: as above; conditions: PDZ SHANK1, PDZ Domain 1
T5 construct: made in house; host or cells: E. coli (DH5alpha, BL21 or JM109)
T5 sequence (Q9Y566 whole entry, the tested form may be a part): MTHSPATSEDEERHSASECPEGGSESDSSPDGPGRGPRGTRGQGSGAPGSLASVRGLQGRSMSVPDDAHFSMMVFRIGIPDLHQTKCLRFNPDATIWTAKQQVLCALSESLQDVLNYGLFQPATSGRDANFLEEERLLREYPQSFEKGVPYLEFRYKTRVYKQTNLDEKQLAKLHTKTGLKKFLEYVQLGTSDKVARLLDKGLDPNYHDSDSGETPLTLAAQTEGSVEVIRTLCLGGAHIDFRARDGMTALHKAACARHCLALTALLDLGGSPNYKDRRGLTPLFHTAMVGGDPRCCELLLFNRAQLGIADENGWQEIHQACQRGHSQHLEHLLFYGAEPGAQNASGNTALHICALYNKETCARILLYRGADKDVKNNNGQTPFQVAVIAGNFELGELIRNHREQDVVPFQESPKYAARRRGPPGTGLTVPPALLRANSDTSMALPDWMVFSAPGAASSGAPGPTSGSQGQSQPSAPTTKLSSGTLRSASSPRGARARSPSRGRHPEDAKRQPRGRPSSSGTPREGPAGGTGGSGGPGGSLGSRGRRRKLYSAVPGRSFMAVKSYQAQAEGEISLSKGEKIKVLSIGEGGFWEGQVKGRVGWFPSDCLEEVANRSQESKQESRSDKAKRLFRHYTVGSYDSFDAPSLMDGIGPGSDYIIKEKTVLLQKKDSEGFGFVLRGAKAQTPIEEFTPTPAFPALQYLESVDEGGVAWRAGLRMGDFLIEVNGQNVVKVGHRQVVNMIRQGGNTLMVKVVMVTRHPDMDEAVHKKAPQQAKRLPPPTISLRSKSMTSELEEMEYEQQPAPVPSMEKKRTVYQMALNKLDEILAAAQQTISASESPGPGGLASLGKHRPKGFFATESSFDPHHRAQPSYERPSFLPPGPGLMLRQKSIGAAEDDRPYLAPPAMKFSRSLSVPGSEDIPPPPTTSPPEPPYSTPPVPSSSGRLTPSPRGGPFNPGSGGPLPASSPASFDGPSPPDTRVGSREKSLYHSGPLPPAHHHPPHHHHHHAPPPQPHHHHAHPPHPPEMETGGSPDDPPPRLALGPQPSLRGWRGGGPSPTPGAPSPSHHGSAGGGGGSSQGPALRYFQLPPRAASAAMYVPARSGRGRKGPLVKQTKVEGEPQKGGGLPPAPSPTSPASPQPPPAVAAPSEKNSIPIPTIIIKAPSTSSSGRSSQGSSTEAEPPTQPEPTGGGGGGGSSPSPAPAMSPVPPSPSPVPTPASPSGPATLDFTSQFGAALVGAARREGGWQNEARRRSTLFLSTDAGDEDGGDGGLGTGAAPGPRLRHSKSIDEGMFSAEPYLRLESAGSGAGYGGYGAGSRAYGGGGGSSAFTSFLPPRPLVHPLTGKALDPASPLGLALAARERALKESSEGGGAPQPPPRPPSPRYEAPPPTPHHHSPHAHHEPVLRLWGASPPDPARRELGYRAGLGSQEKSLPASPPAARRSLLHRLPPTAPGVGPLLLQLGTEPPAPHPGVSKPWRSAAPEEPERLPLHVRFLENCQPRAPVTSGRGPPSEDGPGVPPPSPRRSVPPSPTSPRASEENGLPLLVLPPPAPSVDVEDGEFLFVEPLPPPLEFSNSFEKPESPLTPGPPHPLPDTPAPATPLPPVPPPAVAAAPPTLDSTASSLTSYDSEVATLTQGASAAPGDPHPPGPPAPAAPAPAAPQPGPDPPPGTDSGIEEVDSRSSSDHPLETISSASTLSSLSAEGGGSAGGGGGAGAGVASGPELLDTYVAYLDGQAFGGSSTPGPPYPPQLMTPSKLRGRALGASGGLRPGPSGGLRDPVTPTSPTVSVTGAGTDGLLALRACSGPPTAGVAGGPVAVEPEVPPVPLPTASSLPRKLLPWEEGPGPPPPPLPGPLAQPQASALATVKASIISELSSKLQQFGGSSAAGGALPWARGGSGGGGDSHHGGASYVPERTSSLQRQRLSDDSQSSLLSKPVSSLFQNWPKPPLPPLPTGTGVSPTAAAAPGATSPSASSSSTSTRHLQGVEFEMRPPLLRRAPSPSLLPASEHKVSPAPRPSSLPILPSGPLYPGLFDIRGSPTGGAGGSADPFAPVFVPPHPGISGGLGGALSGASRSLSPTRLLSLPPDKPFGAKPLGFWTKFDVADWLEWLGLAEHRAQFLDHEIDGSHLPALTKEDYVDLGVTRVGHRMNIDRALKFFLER
Method in brief: as §3

[6] = target: T6, PDZ-domain polypeptide (GST/PDZ fusion protein) (Homo sapiens, UniProt Q5T2W1); test: Apparent affinity (Kd) by titration of PL peptide in the G assay; conditions: Peptide Optimal Conc (Kd by titration of the PL peptide), PDZ PDZK-1, PDZ Domain 2
T6 construct: made in house; host or cells: E. coli (DH5alpha, BL21 or JM109)
Description: as §1
The “A” and “G” assays described supra can be used to determine the “apparent affinity” of binding of a PDZ ligand peptide to a PDZ-domain polypeptide. Apparent affinity is determined based on the concentration of one molecule required to saturate the binding of a second molecule (e.g., the binding of a ligand to a receptor). Two particularly useful approaches for quantitation of apparent affinity of PDZ-ligand binding are provided infra.
In cases where satisfying the above criteria proves difficult, an alternative approach (infra) can be used.
(1) A fixed concentration of a PDZ-domain polypeptide and increasing concentrations of a labeled PL peptide (labeled with, for example, biotin or fluorescein, see TABLE 9 for representative peptide amino acid sequences) are mixed together in solution and allowed to react. In certain assays, peptide concentrations are 0.1 uM, 1 uM, 10 uM, 100 uM, 1 mM. In other assays, appropriate reaction times can range from 10 minutes to 2 days at temperatures ranging from 4° C. to 37° C. In some instances, the identical reaction can also be carried out using a non-PDZ domain-containing protein as a control (e.g., if the PDZ-domain polypeptide is fusion protein, the fusion partner can be used).
(2) PDZ-ligand complexes can be separated from unbound labeled peptide using a variety of methods known in the art.
(3) The PDZ-ligand complex is detected based on presence of the label on the peptide ligand using a variety of methods and detectors known to one of skill in the art. For example, if the label is fluorescein and the separation is achieved using HPSEC, an in-line fluorescence detector can be used. The binding can also be detected as described supra for the G assay.

[7] = target: T7, PDZK1 (PDZ Domain 2, 3, 4) (Homo sapiens, UniProt Q5T2W1); test: G' assay, TABLE 12; conditions: A450 nm class of biotinylated PL peptide bound; 0 in conc columns = peptide 10 uM, protein 5 ug/ml
T7 construct: When more than one PDZ domain was cloned, the DNA portion cloned represents the PDZ domains and the cDNA portion located between individual domains; made in house; host or cells: E. coli (DH5alpha, BL21 or JM109)
Description: as §1, §2
(§4) For convenience, the assay conditions described in this section are referred to as the “G′ assay” and the “G″ assay,” with the specific conditions described in the preceding section on G assays being referred to as the “G^0 assay.” The “G′ assay” is identical to the “G^0 assay” except at step (2) the peptide concentration is 10 uM instead of 20 uM. […] Correspondingly, it slightly increases the certainty that detected interactions are of sufficient affinity and half-life to be of biological importance and useful therapeutic targets.

[8] = target: T8, KIAA0561 (PDZ Domain 1) (Homo sapiens, UniProt O60307); test: G' assay, TABLE 12; conditions: A450 nm class of biotinylated PL peptide bound; 0 in conc columns = peptide 10 uM, protein 5 ug/ml
T8 construct: made in house; host or cells: E. coli (DH5alpha, BL21 or JM109)
T8 sequence (O60307 with tags, fused parts or gaps): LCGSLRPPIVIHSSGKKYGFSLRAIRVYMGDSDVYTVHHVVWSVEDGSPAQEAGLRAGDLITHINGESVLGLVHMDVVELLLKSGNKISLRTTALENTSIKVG
Description: as §1, §2, §4

[9] = target: T9, KIAA807 (Homo sapiens, UniProt Q6P0Q8); test: G' assay, TABLE 12; conditions: A450 nm class of biotinylated PL peptide bound; 0 in conc columns = peptide 10 uM, protein 5 ug/ml
T9 construct: made in house; host or cells: E. coli (DH5alpha, BL21 or JM109)
T9 sequence (Q6P0Q8 1104-1192 limits assumed): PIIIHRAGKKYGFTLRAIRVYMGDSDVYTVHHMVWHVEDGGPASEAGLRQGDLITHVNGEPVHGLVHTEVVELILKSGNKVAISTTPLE
Description: as §1, §2, §4

CC(C)C[C@H](NC(=O)[C@H](CO)NC(=O)[C@H](CO)NC(=O)[C@H](CCCNC(=N)N)NC(=O)[C@H](CCCNC(=N)N)NC(=O)[C@H](Cc1c[nH]c2ccccc12)NC(=O)[C@H](CO)NC(=O)[C@@H]1CCCN1C(=O)CCCC[C@@H]1SC[C@@H]2NC(=O)N[C@@H]21)C(=O)N[C@@H](CO)C(=O)N[C@@H](CCC(=O)O)C(=O)N[C@@H](CO)C(=O)N[C@@H](CCC(=O)O)C(=O)N[C@@H](CC(N)=O)C(=O)N[C@@H](C)C(=O)N[C@H](C(=O)N[C@@H](CO)C(=O)N[C@@H](CC(C)C)C(=O)N[C@H](C(=O)N[C@H](C(=O)N[C@@H](Cc1ccccc1)C(=O)O)[C@@H](C)O)[C@@H](C)O)[C@@H](C)O [BLR-1] (Biotin-PSWRRSSLSESENATSLTTF-OH; C-terminus assumed)
Kd [1]: 1 µM | Classification ([1]; A450 nm class of biotinylated PL peptide bound, 0 in conc columns = peptide 10 uM, protein 5 ug/ml): 2 (A450 nm 1-2) | Classification [2]: 1 (A450 nm 0-1) | Classification ([3]; PDZ EBP50, PDZ Domain 1): 3 (A450 nm 2-3) | Classification ([3]; PDZ EBP50, PDZ Domain 2): 3 (A450 nm 2-3) | Classification [4]: 3 (A450 nm 2-3) | Classification [5]: 3 (A450 nm 2-3) | Kd [6]: 2 µM | Classification [7]: 1 (A450 nm 0-1) | Classification [8]: 1 (A450 nm 0-1) | Classification [9]: 2 (A450 nm 1-2)
